This note sets out measurements from paper PMC5110965, “Evolutionarily conserved odorant receptor function questions ecological context of octenol role in mosquitoes” (Scientific Reports, 2016).

For orientation: EC50 means the midpoint of the concentration-response curve. Low values mean a more potent agent, high ones a less potent agent.

Assay [1] concerns T1, TaOR8.
T1 construct: gene Or8; with TaORco
The experiment in a line: two-electrode voltage clamp in Xenopus oocytes, concentration-response. The assay is classed as cell-based, Toxorhynchites amboinensis. For orientation: Two-electrode voltage clamp is typically applied to oocytes expressing channels or transporters.

The subject of assay [2] is T1, TaOR8. The experiment in a line: two-electrode voltage clamp; […] DEET against […] (R)-octenol response. The class given is cell-based, Toxorhynchites amboinensis. As to conditions: 1000 µM.

The structures appear in SMILES notation.

Turning to `C=CC(O)CCCCC` (racemic) [(RS), (RS)-1-octen-3-ol], in assay [1], it took 3.29 µM to reach a half-maximal effect (EC50).

Turning to `C=C[C@H](O)CCCCC` [(R), (R)-(−)-1-octen-3-ol], the midpoint of the response in assay [1], the EC50, lay at 0.401 µM.

As for `C=C[C@@H](O)CCCCC` [(S), (S)-(+)-1-octen-3-ol], the response in assay [1] was half-maximal at 50.6 µM (EC50).

`CCN(CC)C(=O)c1cccc(C)c1` [DEET, N,N-Diethyl-meta-toluamide]: the “% inhibition at 10^-3 M” value in assay [2] came to 90.
